{
  "source": "paper PMC9889419",
  "about": "(Pharmacological Reports, 2022)",
  "key": {"rats": {"tested_on": "rats", "experiment": "Rotarod / TOX (neurotoxicity)", "details": "for Rotarod TD50: rats", "procedure": "The assays were carried out within the Epilepsy Therapy Screening Program (ETSP, previously known as the Anticonvulsant Screening Program, ASP), Epilepsy Branch, National Institute of Neurological and Communicative Disorders and Stroke, National Institutes of Health in Rockville, MD, USA [23].\nThe obtained compounds were screened for antiseizure activity and neurotoxicity in vivo within the Epilepsy Therapy Screening Program (ETSP, previously known as the Anticonvulsant Screening Program, ASP), Epilepsy Branch, National Institute of Neurological and Communicative Disorders and Stroke, National Institutes of Health in Rockville, MD, USA [23]."}, "anaesthetized rat": {"tested_on": "anaesthetized rat", "experiment": "Effect on normal electrocardiogram;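 note: standard lead II ECG run at 50 mm/s, taken before dosing and at serial times up to 60 min after iv or 90 min after po administration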", "format": "in vivo, rats", "procedure": "The effect on normal electrocardiogram. In vivo electrocardiographic investigations were carried out on using ASPEL ASCARD B5, (Aspel, Poland) apparatus, standard lead II, and paper speed of 50 mm/s. The ECG was recorded just prior to and also 1, 2, 3, 5, 10, 15, 20, 30, 40, 50, and 60 min following the iv or 5, 10, 20, 30, 40, 50, 60, 70, 80, 90 following the po administration of the compound."}},
  "note": "Where a name gives a salt, the structure may show the parent alone.",
  "data": [
    {"smiles": "CCC(CO)NCCOc1c(C)cccc1Cl", "note": "(stereo not shown) [Compound 4, R,S-2-((2-(2-chloro-6-methylphenoxy)ethyl)amino)butan-1-ol]", "values": [
      {"measurement": "Rotarod TD50", "setting": "rats; ip, listed as 348014", "result": "< 50", "unit": "mg/kg"},
      {"measurement": "Rotarod TD50", "setting": "rats; po", "result": "> 240", "unit": "mg/kg"},
      {"measurement": "TOX TD50", "setting": "rats; report of 16-Aug-2004 (rats, po)", "result": "> 60", "unit": "mg/kg"}
    ]},
    {"smiles": "CCC(CO)NCCOc1c(C)cccc1Cl", "note": "(stereo not shown) [KM-408, R,S-2-((2-(2-chloro-6-methylphenoxy)ethyl)amino)butan-1-ol hydrochloride]", "values": [
      {"measurement": "PQ", "setting": "anaesthetized rat; 5 mg/kg iv, 0 min", "result": "50.5 ± 2.6", "unit": "ms"},
      {"measurement": "QT", "setting": "anaesthetized rat; 5 mg/kg iv, 0 min", "result": "56.8 ± 3.8", "unit": "ms"},
      {"measurement": "PQ", "setting": "anaesthetized rat; 5 mg/kg iv, 1 min", "result": "59.5 ± 5.3", "unit": "ms"},
      {"measurement": "QT", "setting": "anaesthetized rat; 5 mg/kg iv, 1 min", "result": "58.0 ± 3.4", "unit": "ms"},
      {"measurement": "PQ", "setting": "anaesthetized rat; 5 mg/kg iv, 3 min", "result": "54.8 ± 2.9", "unit": "ms"},
      {"measurement": "QT", "setting": "anaesthetized rat; 5 mg/kg iv, 3 min", "result": "60.0 ± 2.8", "unit": "ms"},
      {"measurement": "PQ", "setting": "anaesthetized rat; 5 mg/kg iv, 5 min", "result": "54.4 ± 2.3", "unit": "ms"},
      {"measurement": "QT", "setting": "anaesthetized rat; 5 mg/kg iv, 5 min", "result": "56.8 ± 3.9", "unit": "ms"},
      {"measurement": "PQ", "setting": "anaesthetized rat; 5 mg/kg iv, 10 min", "result": "54.0 ± 1.9", "unit": "ms"},
      {"measurement": "QT", "setting": "anaesthetized rat; 5 mg/kg iv, 10 min", "result": "56.2 ± 4.2", "unit": "ms"},
      {"measurement": "PQ", "setting": "anaesthetized rat; 5 mg/kg iv, 15 min", "result": "54.4 ± 1.9", "unit": "ms"},
      {"measurement": "QT", "setting": "anaesthetized rat; 5 mg/kg iv, 15 min", "result": "55.2 ± 4.1", "unit": "ms"},
      {"measurement": "PQ", "setting": "anaesthetized rat; 5 mg/kg iv, 20 min", "result": "54.4 ± 2.0", "unit": "ms"},
      {"measurement": "QT", "setting": "anaesthetized rat; 5 mg/kg iv, 20 min", "result": "56.0 ± 4.0", "unit": "ms"},
      {"measurement": "PQ", "setting": "anaesthetized rat; 5 mg/kg iv, 30 min", "result": "54.8 ± 1.7", "unit": "ms"},
      {"measurement": "QT", "setting": "anaesthetized rat; 5 mg/kg iv, 30 min", "result": "57.2 ± 3.7", "unit": "ms"},
      {"measurement": "PQ", "setting": "anaesthetized rat; 5 mg/kg iv, 40 min", "result": "53.6 ± 2.2", "unit": "ms"},
      {"measurement": "QT", "setting": "anaesthetized rat; 5 mg/kg iv, 40 min", "result": "57.0 ± 3.7", "unit": "ms"},
      {"measurement": "PQ", "setting": "anaesthetized rat; 5 mg/kg iv, 50 min", "result": "53.6 ± 2.6", "unit": "ms"},
      {"measurement": "QT", "setting": "anaesthetized rat; 5 mg/kg iv, 50 min", "result": "58.8 ± 3.4", "unit": "ms"},
      {"measurement": "PQ", "setting": "anaesthetized rat; 5 mg/kg iv, 60 min", "result": "53.6 ± 1.5", "unit": "ms"},
      {"measurement": "QT", "setting": "anaesthetized rat; 5 mg/kg iv, 60 min", "result": "56.0 ± 4.0", "unit": "ms"},
      {"measurement": "influence on heart rate or ECG intervals", "setting": "anaesthetized rat; 50 mg/kg po", "result": "did not influence"},
      {"measurement": "PQ", "setting": "anaesthetized rat; 50 mg/kg po, 0 min", "result": "55.6 ± 1.8", "unit": "ms"},
      {"measurement": "QT", "setting": "anaesthetized rat; 50 mg/kg po, 0 min", "result": "55.2 ± 3.9", "unit": "ms"},
      {"measurement": "PQ", "setting": "anaesthetized rat; 50 mg/kg po, 5 min", "result": "59.2 ± 1.9", "unit": "ms"},
      {"measurement": "QT", "setting": "anaesthetized rat; 50 mg/kg po, 5 min", "result": "60.0 ± 0.0", "unit": "ms"},
      {"measurement": "PQ", "setting": "anaesthetized rat; 50 mg/kg po, 10 min", "result": "59.6 ± 2.1", "unit": "ms"},
      {"measurement": "QT", "setting": "anaesthetized rat; 50 mg/kg po, 10 min", "result": "59.2 ± 0.8", "unit": "ms"},
      {"measurement": "PQ", "setting": "anaesthetized rat; 50 mg/kg po, 20 min", "result": "59.0 ± 1.0", "unit": "ms"},
      {"measurement": "QT", "setting": "anaesthetized rat; 50 mg/kg po, 20 min", "result": "58.0 ± 2.0", "unit": "ms"},
      {"measurement": "PQ", "setting": "anaesthetized rat; 50 mg/kg po, 30 min", "result": "57.4 ± 1.2", "unit": "ms"},
      {"measurement": "QT", "setting": "anaesthetized rat; 50 mg/kg po, 30 min", "result": "58.4 ± 1.0", "unit": "ms"},
      {"measurement": "PQ", "setting": "anaesthetized rat; 50 mg/kg po, 40 min", "result": "59.2 ± 1.5", "unit": "ms"},
      {"measurement": "QT", "setting": "anaesthetized rat; 50 mg/kg po, 40 min", "result": "59.2 ± 0.8", "unit": "ms"},
      {"measurement": "PQ", "setting": "anaesthetized rat; 50 mg/kg po, 50 min", "result": "58.4 ± 1.0", "unit": "ms"},
      {"measurement": "QT", "setting": "anaesthetized rat; 50 mg/kg po, 50 min", "result": "58.8 ± 1.2", "unit": "ms"},
      {"measurement": "PQ", "setting": "anaesthetized rat; 50 mg/kg po, 60 min", "result": "58.4 ± 1.6", "unit": "ms"},
      {"measurement": "QT", "setting": "anaesthetized rat; 50 mg/kg po, 60 min", "result": "58.8 ± 1.2", "unit": "ms"},
      {"measurement": "PQ", "setting": "anaesthetized rat; 50 mg/kg po, 70 min", "result": "59.6 ± 1.0", "unit": "ms"},
      {"measurement": "QT", "setting": "anaesthetized rat; 50 mg/kg po, 70 min", "result": "61.2 ± 4.2", "unit": "ms"},
      {"measurement": "PQ", "setting": "anaesthetized rat; 50 mg/kg po, 80 min", "result": "59.6 ± 0.4", "unit": "ms"},
      {"measurement": "QT", "setting": "anaesthetized rat; 50 mg/kg po, 80 min", "result": "60.0 ± 0.0", "unit": "ms"},
      {"measurement": "PQ", "setting": "anaesthetized rat; 50 mg/kg po, 90 min", "result": "59.6 ± 1.3", "unit": "ms"},
      {"measurement": "QT", "setting": "anaesthetized rat; 50 mg/kg po, 90 min", "result": "60.0 ± 0.0", "unit": "ms"},
      {"measurement": "PQ", "setting": "anaesthetized rat; 300 mg/kg po, 0 min", "result": "51.6 ± 3.6", "unit": "ms"},
      {"measurement": "QT", "setting": "anaesthetized rat; 300 mg/kg po, 0 min", "result": "58.0 ± 2.0", "unit": "ms"},
      {"measurement": "PQ", "setting": "anaesthetized rat; 300 mg/kg po, 5 min", "result": "51.2 ± 3.4", "unit": "ms"},
      {"measurement": "QT", "setting": "anaesthetized rat; 300 mg/kg po, 5 min", "result": "57.2 ± 2.0", "unit": "ms"},
      {"measurement": "PQ", "setting": "anaesthetized rat; 300 mg/kg po, 10 min", "result": "54.8 ± 2.1", "unit": "ms"},
      {"measurement": "QT", "setting": "anaesthetized rat; 300 mg/kg po, 10 min", "result": "55.6 ± 2.0", "unit": "ms"},
      {"measurement": "PQ", "setting": "anaesthetized rat; 300 mg/kg po, 20 min", "result": "55.2 ± 2.2", "unit": "ms"},
      {"measurement": "QT", "setting": "anaesthetized rat; 300 mg/kg po, 20 min", "result": "58.0 ± 2.0", "unit": "ms"},
      {"measurement": "PQ", "setting": "anaesthetized rat; 300 mg/kg po, 30 min", "result": "55.2 ± 2.2", "unit": "ms"},
      {"measurement": "QT", "setting": "anaesthetized rat; 300 mg/kg po, 30 min", "result": "58.0 ± 2.0", "unit": "ms"},
      {"measurement": "PQ", "setting": "anaesthetized rat; 300 mg/kg po, 40 min", "result": "55.2 ± 2.1", "unit": "ms"},
      {"measurement": "QT", "setting": "anaesthetized rat; 300 mg/kg po, 40 min", "result": "59.2 ± 0.8", "unit": "ms"},
      {"measurement": "PQ", "setting": "anaesthetized rat; 300 mg/kg po, 50 min", "result": "55.8 ± 2.8", "unit": "ms"},
      {"measurement": "QT", "setting": "anaesthetized rat; 300 mg/kg po, 50 min", "result": "60.0 ± 0.0", "unit": "ms"},
      {"measurement": "PQ", "setting": "anaesthetized rat; 300 mg/kg po, 60 min", "result": "56.0 ± 2.8", "unit": "ms"},
      {"measurement": "QT", "setting": "anaesthetized rat; 300 mg/kg po, 60 min", "result": "59.2 ± 0.8", "unit": "ms"},
      {"measurement": "PQ", "setting": "anaesthetized rat; 300 mg/kg po, 70 min", "result": "55.4 ± 2.3", "unit": "ms"},
      {"measurement": "QT", "setting": "anaesthetized rat; 300 mg/kg po, 70 min", "result": "60.0 ± 0.0", "unit": "ms"},
      {"measurement": "PQ", "setting": "anaesthetized rat; 300 mg/kg po, 80 min", "result": "56.0 ± 2.4", "unit": "ms"},
      {"measurement": "QT", "setting": "anaesthetized rat; 300 mg/kg po, 80 min", "result": "60.0 ± 0.0", "unit": "ms"},
      {"measurement": "PQ", "setting": "anaesthetized rat; 300 mg/kg po, 90 min", "result": "56.0 ± 2.4", "unit": "ms"},
      {"measurement": "QT", "setting": "anaesthetized rat; 300 mg/kg po, 90 min", "result": "59.6 ± 0.4", "unit": "ms"}
    ]}
  ]
}
